Key:
AM79 EPSPS [1] = test system: T1, AM79 EPSPS; test: Pi release (Lanzetta reagent, […] nm); Michaelis-Menten fit; assay type: biochemical, uncultured soil bacterium; details: 1 mM S3P, no glyphosate, 50 mM HEPES-NaOH pH 7.0, 100 mM KCl, 2 mM DTT, 25 °C; read-out: K m (PEP; μM)
T1 construct: gene aroA; aroA in pET-28a, stop codon removed so two His tags (N- and C-terminal), E. coli Rosetta (DE3), Ni-NTA purified; printed residues Ala107, Phe114, Ala355, His356, Glu357

G2 EPSPS = molecular target: T2, G2 EPSPS (Pseudomonas fluorescens, UniProt A1Z0H6); test: Pi release (Lanzetta reagent, […] nm); Km(obs) of PEP versus glyphosate; assay type: biochemical; details: 1 mM S3P, varied PEP, 50 mM HEPES-NaOH pH 7.0, 100 mM KCl, 2 mM DTT, 25 °C; competitive with PEP; read-out: K i (glyphosate; μM)
T2 construct: gene aroA

A1501 EPSPS = molecular target: T3, A1501 EPSPS (Stutzerimonas stutzeri, UniProt A4VLZ3); test: as above; assay type: biochemical; details: 1 mM S3P, varied PEP, 50 mM HEPES-NaOH pH 7.0, 100 mM KCl, 2 mM DTT, 25 °C; competitive with PEP; read-out: K i (glyphosate; μM)
T3 construct: gene aroA

AM79 EPSPS [2] = molecular target: T1, AM79 EPSPS; test: as above; assay type: biochemical, uncultured soil bacterium; details: 1 mM S3P, varied PEP, 50 mM HEPES-NaOH pH 7.0, 100 mM KCl, 2 mM DTT, 25 °C; competitive with PEP; read-out: K i (glyphosate; μM)

Row | Compound | Km (AM79 EPSPS [1]) [µM] | Ki (G2 EPSPS) [µM] | Ki (A1501 EPSPS) [µM] | Ki (AM79 EPSPS [2]) [µM]
1 | C=C(OP(=O)(O)O)C(=O)O [PEP] | 14.59 ± 0.11 |  |  | 
2 | O=C(O)CNCP(=O)(O)O [glyphosate, N-phosphonomethyl glycine] |  | 44.7 ± 5.2 | 467 ± 30.2 | 154 ± 4.06

— publication PMC3371024, “A Novel 5-Enolpyruvylshikimate-3-Phosphate Synthase Shows High Glyphosate Tolerance in Escherichia coli and Tobacco Plants” (PLoS ONE, 2012)
